pIC50: −log10 of the molar value.
Assays:
[1] = tested on: Trypsin; assay: Dose response assay for protease inhibitors: trypsin; assay type: biochemical; conditions: selectivity, trypsin over Factor XIa
Procedure, shortened: (§1)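 Fluorogenic AMC-peptide cleavage in 20 mM Hepes pH 7.4, 150 mM NaCl, 0.02% Tween 20; 100 μM stock substrate dilution (Glp-Pro-Arg-AMC for thrombin/trypsin; Pro-Phe-Arg-AMC or Boc-Leu-Gly-Arg-AMC for Factor Xa). Enzyme diluted to 0.5 nM, added last to two-fold compound series; kinetic read at 30° C, 30 min (Factor Xa 60 min); IC50 fitted.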

[2] = molecular target: Factor Xa (Homo sapiens (Human), UniProt P00742); assay: Dose response assay for protease inhibitors: Factor Xa; assay type: biochemical; conditions: selectivity, Factor Xa over Factor XIa
Procedure, shortened: as §1

[3] = molecular target: Factor XIa (Homo sapiens (Human), UniProt P03951); assay: Factor XIa enzyme inhibition assay (dose response, fluorogenic AMC substrate); assay type: biochemical; conditions: read-out: hFXIa IC50
Procedure, shortened: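 Human FXIa at 0.25 nM final with 50 μM final PyroGlu-Pro-Arg-AMC in 20 mM Hepes pH 7.4, 150 mM NaCl, 0.02% Tween 20. Two-fold serial compound dilutions; fluorescence read every minute for 30 min at 30° C. IC50 from a four-parameter Hill fit.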

[4] = molecular target: Thrombin (Homo sapiens (Human), UniProt P00734); assay: Dose response assay for protease inhibitors: thrombin; assay type: biochemical; conditions: selectivity, thrombin over Factor XIa
Procedure, shortened: as §1

[5] = Caco-2 cell permeability assay; assay type: in vitro ADME, human; conditions: human, 37° C.; for Papp A→B at 60 min, 10 μM: Caco-2, apical to basolateral; for Papp B→A at 40 min, 10 μM: Caco-2, basolateral to apical
Description: The following procedure was used to determine the ability of a test compound to cross Caco-2 cells (human intestinal epithelial cells derived from a colorectal adenocarcinoma). The cells were seeded at 1×10^5 cells/cm^2 in 96-well Multiscreen™ plates (Millipore). Permeability assays were performed with the cells at days 21-25 post-seeding. Cells are typically used for 15 consecutive passages in culture.
This assay can be performed in either the apical to basolateral (A-B) or basolateral to apical (B-A) direction. The test compound was prepared at 10 μM in HBSS-MES (pH 6.5) or HBSS-HEPES (pH 7.4) with a final DMSO concentration of 1%. The working solution was then centrifuged and the supernatant added to the donor side. The assay plate was incubated at 37° C. with gentle shaking for 60 min or 40 min for the A-B or B-A assay, respectively. Samples were aliquoted from the donor side at time zero and the end point, and from the receiver side at the end point.
Reference compounds, propranolol (highly permeable), labetalol (moderately permeable), ranitidine (poorly permeable), and colchicine (P-glycoprotein substrate) were included in each assay.
Samples are analyzed by HPLC-MS/MS using selected reaction monitoring. The HPLC system consists of a binary LC pump with autosampler, a C-18 column, and a gradient.
The apparent permeability coefficient (Papp) of the test compound (Equation 2) and its recovery (Equation 3) are calculated as follows:
[formula] wherein A is the surface area of the cell monolayer (0.11 cm^2), C is concentration of the test compound expressed as peak area, D denotes donor, and R is receiver. “0”, “mid,” and “end” denote time at zero, mid-point, and end of the incubation, respectively. Δt is the incubation time. V is the volume of the donor or receiver.
This is most likely due to non-specific binding or degradation.

[6] = Metabolic stability in dog hepatocytes; assay type: in vitro ADME; conditions: pooled cryopreserved hepatocytes; beagle dog hepatocytes, 2 μM compound; read-out: Dog Hepatocyte Stability (t1/2)
Description: The following procedure was used to determine the stability of test compounds in beagle dog hepatocytes in a 96-well plate format. The test compounds, including the controls, imipramine and 7-ethoxycoumarin, were dissolved at 10 mM in DMSO, followed by further 5-fold dilution with DMSO to 2 mM. Pooled cryopreserved beagle dog hepatocytes were thawed and transferred into complete medium. Cells were gently centrifuged (700 rpm for 5 min) and the pellet rinsed with KHB (Krebs Henseleit buffer). Cells were resuspended, counted using Trypan blue, and adjusted to 1 million cells/mL in KHB buffer. The 2 mM compound stock solutions were diluted 10-fold with acetonitrile, followed by a further 50-fold dilution with KHB buffer. 200 μL of these compound solutions were transferred to 96-well polypropylene assay plates and an equal volume of the hepatocyte solution was added and mixed to initiate the reaction (final assay concentrations were 2 μM compound and 500,000 cells/mL). Assay plates were incubated at 37° C. in 5% CO2 with gentle agitation. 50 μL aliquots were removed at multiple time points out to 180 minutes and quenched with 6 volumes of cold acetonitrile (containing 250 ng/mL of carbutamide and chrysin as internal standards) to terminate the reaction and precipitate protein. Quenched samples were maintained on ice. The quenched samples were centrifuged at 2000×g (3100 rpm) for 10 minutes at 4° C. 50 μL aliquots of the supernatants were removed and diluted with 100 μL Milli-Q water to reduce the % organic content prior to bioanalysis by LC-MS/MS. Peak areas corresponding to the test compound were recorded. The compound remaining was calculated by comparing the peak area at each time point to time zero. Data were analyzed and results were calculated using Microsoft Excel 2010.

Factor Xa, sequence (P00742 235-488): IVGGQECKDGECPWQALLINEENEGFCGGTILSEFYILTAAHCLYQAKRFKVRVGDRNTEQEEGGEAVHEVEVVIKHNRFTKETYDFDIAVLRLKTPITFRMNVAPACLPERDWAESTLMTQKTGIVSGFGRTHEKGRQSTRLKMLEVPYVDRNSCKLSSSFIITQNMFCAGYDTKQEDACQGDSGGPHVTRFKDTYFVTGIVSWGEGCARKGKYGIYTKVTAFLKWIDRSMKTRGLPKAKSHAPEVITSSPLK
Factor Xa, sequence (P00742 41-179 partner): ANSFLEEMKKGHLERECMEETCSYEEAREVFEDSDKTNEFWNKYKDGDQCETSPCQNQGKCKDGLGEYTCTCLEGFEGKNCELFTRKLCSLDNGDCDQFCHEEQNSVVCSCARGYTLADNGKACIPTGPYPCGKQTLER
Factor XIa, sequence (P03951 388-625): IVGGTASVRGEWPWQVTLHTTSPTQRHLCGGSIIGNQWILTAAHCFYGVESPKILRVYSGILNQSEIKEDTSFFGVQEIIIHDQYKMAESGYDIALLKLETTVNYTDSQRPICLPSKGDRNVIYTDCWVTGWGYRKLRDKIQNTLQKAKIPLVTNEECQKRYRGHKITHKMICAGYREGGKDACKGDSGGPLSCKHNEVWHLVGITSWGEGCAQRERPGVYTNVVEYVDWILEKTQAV
Factor XIa, sequence (P03951 19-387 partner): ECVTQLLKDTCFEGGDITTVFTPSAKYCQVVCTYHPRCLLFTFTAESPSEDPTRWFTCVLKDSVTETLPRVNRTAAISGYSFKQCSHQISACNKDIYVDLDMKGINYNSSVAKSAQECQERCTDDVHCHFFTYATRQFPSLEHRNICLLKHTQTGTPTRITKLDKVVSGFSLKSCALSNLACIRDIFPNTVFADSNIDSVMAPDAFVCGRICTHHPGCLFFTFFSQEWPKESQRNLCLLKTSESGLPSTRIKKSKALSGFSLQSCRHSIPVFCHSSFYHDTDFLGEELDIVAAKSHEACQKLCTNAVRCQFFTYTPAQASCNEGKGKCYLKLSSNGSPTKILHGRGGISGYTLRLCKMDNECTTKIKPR

| Compound | Ratio: Trypsin/FXIa [1] | Ratio: FXa/FXIa [2] | pIC50 [3] | Ratio: Thrombin/FXIa [4] | Papp A→B at 60 min, 10 μM [5] [×10⁻⁶ cm/s] | Papp B→A at 40 min, 10 μM [5] [×10⁻⁶ cm/s] | half-life at 2 μM [6] [h] |
| --- | --- | --- | --- | --- | --- | --- | --- |
| CC[C@@H](NC(=O)N1C(=O)[C@H](Cc2ccnc(N)c2)[C@H]1C(=O)N(C)c1ccsc1)c1ccccc1 [Compound 1-9, (2S,3R)-3-((2-aminopyridin-4-yl)methyl)-N2-(thiophen-3-yl)-N1-((R)-1-phenylpropyl)-N2-methyl-4-oxoazetidine-1,2-dicarboxamide] | G (“G” indicates 1-100) | H (“H” indicates 101-1000) | > 8.00 | H (“H” indicates 101-1000) | 11 to 30 | 11 to 30 |  |
| CC[C@@H](NC(=O)N1C(=O)[C@H](Cc2ccnc(N)c2)[C@H]1C(=O)N(C)c1cnn(C)c1)c1cccc(Cl)c1 [Compound 1-11, (2S,3R)-3-((2-aminopyridin-4-yl)methyl)-N2-(1-methyl-1H-pyrazol-4-yl)-N1-((R)-1-(3-chlorophenyl)propyl)-N2-methyl-4-oxoazetidine-1,2-dicarboxamide] | G (“G” indicates 1-100) | H (“H” indicates 101-1000) | > 8.00 | H (“H” indicates 101-1000) | < 10 | 11 to 30 |  |
| CC[C@@H](NC(=O)N1C(=O)[C@H](Cc2cc(C)nc(N)c2)[C@H]1C(=O)N(C)c1ccn(C)n1)c1ccccc1 [Compound 1-48, (2S,3R)-3-((2-amino-6-methylpyridin-4-yl)methyl)-N2-(1-methyl-1H-pyrazol-3-yl)-N1-((R)-1-phenylpropyl)-N2-methyl-4-oxoazetidine-1,2-dicarboxamide] | G (“G” indicates 1-100) | I (“I” indicates > 500) | > 8.00 | H (“H” indicates 101-1000) |  |  | > 4 |
| CC[C@@H](NC(=O)N1C(=O)[C@H](Cc2cc(C)nc(N)c2)[C@H]1C(=O)N(C)c1cnn(C)c1)c1cc(C)cc(F)c1 [Compound 1-184, (2S,3R)-3-((2-amino-6-methylpyridin-4-yl)methyl)-N2-(1-methyl-1H-pyrazol-4-yl)-N1-((R)-1-(3-fluoro-5-methylphenyl)propyl)-N2-methyl-4-oxoazetidine-1,2-dicarboxamide] | G (“G” indicates 1-100) | I (“I” indicates > 500) | > 8.00 | H (“H” indicates 101-1000) |  |  |  |
| CC[C@@H](NC(=O)N1C(=O)[C@H](Cc2cc(C)nc(N)c2)[C@H]1C(=O)N(C)c1cnn(C)c1)c1cc(C)cc(C)c1 [Compound 1-185, (2S,3R)-3-((2-amino-6-methylpyridin-4-yl)methyl)-N2-(1-methyl-1H-pyrazol-4-yl)-N1-((R)-1-(3,5-dimethylphenyl)propyl)-N2-methyl-4-oxoazetidine-1,2-dicarboxamide] | G (“G” indicates 1-100) | I (“I” indicates > 500) | > 8.00 | H (“H” indicates 101-1000) |  |  |  |
| CC[C@@H](NC(=O)N1C(=O)[C@H](Cc2ccnc(N)c2)[C@H]1C(=O)N(C)c1nccn1C)c1cc(F)c(F)c(F)c1 [Compound 1-193, (2S,3R)-3-((2-aminopyridin-4-yl)methyl)-N2-(1-methyl-1H-imidazol-2-yl)-N1-((R)-1-(3,4,5-trifluorophenyl)propyl)-N2-methyl-4-oxoazetidine-1,2-dicarboxamide] | G (“G” indicates 1-100) | I (“I” indicates > 500) | > 8.00 | H (“H” indicates 101-1000) |  |  |  |
| CC[C@@H](NC(=O)N1C(=O)[C@H](Cc2ccnc(N)c2)[C@H]1C(=O)N(C)c1nccn1C)c1ccc(F)c(C)c1F [Compound 1-194, (2S,3R)-3-((2-aminopyridin-4-yl)methyl)-N2-(1-methyl-1H-imidazol-2-yl)-N1-((R)-1-(2,4-difluoro-3-methylphenyl)propyl)-N2-methyl-4-oxoazetidine-1,2-dicarboxamide] | H (“H” indicates 101-1000) | I (“I” indicates > 500) | > 8.00 | H (“H” indicates 101-1000) |  |  |  |
| CC[C@@H](NC(=O)N1C(=O)[C@H](Cc2ccnc(N)c2)[C@H]1C(=O)N(C)c1ccn(C)n1)c1cc(F)c(F)c(F)c1 [Compound 1-197, (2S,3R)-3-((2-aminopyridin-4-yl)methyl)-N2-(1-methyl-1H-pyrazol-3-yl)-N1-((R)-1-(3,4,5-trifluorophenyl)propyl)-N2-methyl-4-oxoazetidine-1,2-dicarboxamide] | H (“H” indicates 101-1000) | I (“I” indicates > 500) | > 8.00 | I (“I” indicates > 500) |  |  |  |
| CC[C@@H](NC(=O)N1C(=O)[C@H](Cc2ccnc(N)c2)[C@H]1C(=O)N(C)c1ccn(C)n1)c1ccc(F)c(C)c1F [Compound 1-198, (2S,3R)-3-((2-aminopyridin-4-yl)methyl)-N2-(1-methyl-1H-pyrazol-3-yl)-N1-((R)-1-(2,4-difluoro-3-methylphenyl)propyl)-N2-methyl-4-oxoazetidine-1,2-dicarboxamide] | H (“H” indicates 101-1000) | I (“I” indicates > 500) | > 8.00 | H (“H” indicates 101-1000) |  |  |  |
| CC[C@@H](NC(=O)N1C(=O)[C@H](Cc2ccnc(N)c2)[C@H]1C(=O)N(C)c1cnn(C)c1)c1cc(F)c(F)c(F)c1 [Compound 1-199, (2S,3R)-3-((2-aminopyridin-4-yl)methyl)-N2-(1-methyl-1H-pyrazol-4-yl)-N1-((R)-1-(3,4,5-trifluorophenyl)propyl)-N2-methyl-4-oxoazetidine-1,2-dicarboxamide] | H (“H” indicates 101-1000) | I (“I” indicates > 500) | > 8.00 | H (“H” indicates 101-1000) |  |  |  |
| CC[C@@H](NC(=O)N1C(=O)[C@H](Cc2ccnc(N)c2)[C@H]1C(=O)N(C)c1ccnn1C)c1ccc(F)c(C)c1F [Compound 1-200] | H (“H” indicates 101-1000) | I (“I” indicates > 500) | > 8.00 | I (“I” indicates > 500) |  |  |  |
| (2S,3R)-3-((2-aminopyridin-4-yl)methyl)-N2-(1-methyl-1H-imidazol-4-yl)-N1-((R)-1-cyclohexyl-2,2,2-trifluoroethyl)-N2-methyl-4-oxoazetidine-1,2-dicarboxamide [Compound 1-70] | G (“G” indicates 1-100) | I (“I” indicates > 500) | > 8.00 | G (“G” indicates 1-100) |  |  |  |
| (2S,3R)-3-((2-aminopyridin-4-yl)methyl)-N2-(1-methyl-1H-pyrazol-3-yl)-N1-((S)-1-(3-chlorophenyl)ethyl)-N2-methyl-4-oxoazetidine-1,2-dicarboxamide [Compound 1-33] | G (“G” indicates 1-100) | H (“H” indicates 101-1000) | > 8.00 | H (“H” indicates 101-1000) |  |  |  |

— US11691962B2 (eXIthera Pharmaceuticals, Inc., priority 2018, dated 2023)
